Test results: ChEMBL document CHEMBL1201862, “PubChem BioAssay data set” (2004)
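Cultured in 96-well plates, cells were exposed to test compound for 48 hours across five concentrations. GI50: concentration for 50% inhibition of growth.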 Activity calls are given as the source filed them. Cut-off read from the data, not from the text of the source: active = GI50 up to about 1.1 µM and inactive = higher.

How the values were obtained:
Assay in all cases: NCI anticancer screen, dose series, 48 h
OVCAR-5 = test system: OVCAR-5
MCF7 = test system: MCF7
TK-10 = test system: TK-10
SK-MEL-5 = test system: SK-MEL-5
RPMI-8226 = test system: RPMI-8226
UACC-257 = test system: UACC-257
RXF 393 = test system: RXF 393
U-251 = test system: U-251
CAKI-1 = test system: CAKI-1
DU-145 = test system: DU-145
Malme-3M = test system: Malme-3M
NCI-H23 = test system: NCI-H23
SF-539 = test system: SF-539
MDA-MB-435 = test system: MDA-MB-435
BT-549 = test system: BT-549
MDA-N = test system: MDA-N
SN12C = test system: SN12C
SW-620 = test system: SW-620
LOX IMVI = test system: LOX IMVI
PC-3 = test system: PC-3

Row | SMILES | GI50 (OVCAR-5) | GI50 (MCF7) | GI50 (TK-10) | GI50 (SK-MEL-5) | GI50 (RPMI-8226) | GI50 (UACC-257) | GI50 (RXF 393) | GI50 (U-251) | GI50 (CAKI-1) | GI50 (DU-145) | GI50 (Malme-3M) | GI50 (NCI-H23) | GI50 (SF-539) | GI50 (MDA-MB-435) | GI50 (BT-549) | GI50 (MDA-N) | GI50 (SN12C) | GI50 (SW-620) | GI50 (LOX IMVI) | GI50 (PC-3)
1 | COc1ccc(-c2cc(=O)c3c(OC)c(OC)c(OC)c(OC)c3o2)c(OC)c1 | 70.8 µM (inactive) | 20.5 µM (inactive) | 37.2 µM (inactive) | 16 µM (inactive) | 33 µM (inactive) | 20 µM (inactive) | 36.7 µM (inactive) | 30.8 µM (inactive) | 29.8 µM (inactive) | 30.4 µM (inactive) | 30.5 µM (inactive) | 16.9 µM (inactive) | 61.4 µM (inactive) | 24.6 µM (inactive) | 31 µM (inactive) | 29.1 µM (inactive) | 20.6 µM (inactive) | 31.1 µM (inactive) | 17.2 µM (inactive) | –
2 | C=CCNC1=C2C[C@@H](C)C[C@@H](OC)[C@H](OC(=O)CCN)[C@H](C)/C=C(\C)[C@@H](OC(N)=O)[C@H](OC)/C=C\C=C(/C)C(=O)NC(=CC1=O)C2=O | 10.8 µM (inactive) | 0.703 µM (active) | 2.17 µM (inactive) | 4.12 µM (inactive) | 6.08 µM (inactive) | 2.42 µM (inactive) | 4.66 µM (inactive) | 5.09 µM (inactive) | 12.2 µM (inactive) | 1.21 µM (inactive) | 2.67 µM (inactive) | 3.01 µM (inactive) | – | 2.98 µM (inactive) | 7.45 µM (inactive) | 1.21 µM (inactive) | 2.34 µM (inactive) | 3.6 µM (inactive) | 3.03 µM (inactive) | –
3 | N/C(=N\c1ccc(Cl)cc1)NS(=O)(=O)c1ccc(S(=O)(=O)c2ccccc2)s1 | 31.9 µM (inactive) | 17.2 µM (inactive) | 21.2 µM (inactive) | 15.8 µM (inactive) | 16.6 µM (inactive) | 14.8 µM (inactive) | 53.8 µM (inactive) | 14.4 µM (inactive) | – | 21.5 µM (inactive) | 20 µM (inactive) | 17.7 µM (inactive) | 22.7 µM (inactive) | – | 17.6 µM (inactive) | 18.5 µM (inactive) | 17.5 µM (inactive) | 19 µM (inactive) | 16.3 µM (inactive) | 14.2 µM (inactive)
4 | N=c1oc2ccccc2cc1C(=O)Nc1ccccn1 | > 100 µM (inactive) | – | – | > 100 µM (inactive) | > 100 µM (inactive) | > 100 µM (inactive) | > 100 µM (inactive) | > 100 µM (inactive) | 45.4 µM (inactive) | > 100 µM (inactive) | 14 µM (inactive) | > 100 µM (inactive) | 65.6 µM (inactive) | > 100 µM (inactive) | > 100 µM (inactive) | > 100 µM (inactive) | > 100 µM (inactive) | > 100 µM (inactive) | 54 µM (inactive) | –
5 | CN(C)CCOC1(Cc2ccc(Cl)cc2Cl)CCC(C(C)(C)C)CC1 (centres undefined) | 2.78 µM (inactive) | 2.01 µM (inactive) | 2.62 µM (inactive) | 1.56 µM (inactive) | 2.16 µM (inactive) | 2.04 µM (inactive) | – | 1.46 µM (inactive) | 2.25 µM (inactive) | – | 2.25 µM (inactive) | 2.5 µM (inactive) | 4.36 µM (inactive) | 1.54 µM (inactive) | 1.63 µM (inactive) | 1.81 µM (inactive) | 1.65 µM (inactive) | 1.51 µM (inactive) | 1.44 µM (inactive) | 1.48 µM (inactive)
6 | CCOC(=O)C1OC(=O)CC1C1(C(=O)OCC)C=CC(=O)O1 (centres undefined) | > 100 µM (inactive) | > 100 µM (inactive) | > 100 µM (inactive) | > 100 µM (inactive) | > 100 µM (inactive) | > 100 µM (inactive) | > 100 µM (inactive) | 93.8 µM (inactive) | > 100 µM (inactive) | > 100 µM (inactive) | > 100 µM (inactive) | > 100 µM (inactive) | > 100 µM (inactive) | – | > 100 µM (inactive) | > 100 µM (inactive) | > 100 µM (inactive) | > 100 µM (inactive) | 14.2 µM (inactive) | > 100 µM (inactive)
